{"source": "patent US20100081723A1", "about": "“Memantine For The Treatment Of Childhood Behavioral Disorders” (priority 2004, published 2010)", "key": {"[1]": {"test_system": "autistic children", "conditions": "small double-blind, placebo-controlled study; cited from earlier work"}, "[2]": {"test_system": "hyperkinetic children, children with attention deficit disorder (ADD)", "conditions": "in vivo; cited from earlier work"}, "[3]": {"test_system": "pediatric patients diagnosed with ADHD combined type", "test": "Open-label study of memantine in pediatric ADHD combined type: CGI-ADHD-S", "format": "in vivo, human", "conditions": "Cohort 2, OC analysis, patients who completed the evaluation, end of 8 weeks; 100% moderately or markedly ill at baseline", "experimental": "The Clinical Global Impression-ADHD-Severity (CGI-S) is a 7-point scale (1 [not ill] to 7 [extremely ill]) to be assessed by the Investigator at Screening (part 1.1), Baseline, and from two to eight times during Visits 3 to 10, or upon study discontinuation.\n(§1) Design. This clinical trial was conducted as an open-label, single center, dose-finding outpatient study assessing memantine in pediatric patients diagnosed with ADHD combined type (DSM-IV-TR™ criteria). ADHD combined type is characterized by the presence of significant inattentive and hyperactive/impulsive symptomotology.\n(§2) Patient Population. The study enrolled sixteen (16) male or female outpatients between the ages of 6 and 12 years, mean age of 8 years, diagnosed with ADHD combined type by DSM-IV-TR™ criteria based on clinical evaluation and a semi-structured interview, the Schedule for Affective Disorders and Schizophrenia for School-Age Pediatric patients-Present and Lifetime (K-SADS-PL).\nDosages. Sixteen (16) outpatients with a diagnosis of ADHD combined type received treatment with memantine for a total of 8 weeks. Patients were enrolled in to two groups of 8 patients each, Cohort 1 and Cohort 2. Dose adjustments were permitted for patients experiencing dose-limiting adverse events. […]"}, "[4]": {"test_system": "patients with moderate to severe dementia of the Alzheimer's type", "conditions": "cited from earlier work"}, "[5]": {"test_system": "patients with neurodegenerative disorders", "conditions": "cited from earlier work"}, "[6]": {"test_system": "pediatric patients diagnosed with ADHD combined type", "test": "Open-label study of memantine in pediatric ADHD combined type: ADHD-IV-RS", "format": "in vivo, human", "conditions": "for ADHD-IV-RS change from baseline, Week 4 (mean) / ADHD-IV-RS change from baseline, Week 8 (mean ± SD) / ADHD-IV-RS score, Week 4 (mean ± SD) / ADHD-IV-RS score, Week 8 (mean ± SD) / ADHD-IV-RS change from baseline, Week 4 (mean ± SD): ITT population", "text": "The Attention Deficit/Hyperactivity Disorder Rating Scale, Fourth Edition-Parent Version (ADHD-IV-RS) assesses each of the 18 individual criteria symptoms of ADHD in DSM-IV-TR™ on a severity grid (0=not present, 3=severe; overall minimum score=0, maximum score=54) (DuPaul et al., ADHD Rating Scale-IV: Checklists, Norms, and Clinical Interpretations 1998. New York: The Guilford Press). Inattention symptoms comprise the odd-numbered items, and hyperactive-impulsive symptoms are represented by the even-numbered items. The scale takes approximately 10 to 15 minutes to complete. […] It is to be completed by the patient's parent or legal guardian at Screening (part 1.1), Baseline, and from two to eight times during Visits 3 to 10, or upon study discontinuation.\n(§3) The primary objective of this study was to provide preliminary safety and tolerability evaluations of memantine in pediatric patients with ADHD combined type. The secondary objectives of the study were to evaluate the pharmacokinetics of memantine in this patient population, and to provide preliminary evaluations of efficacy on effect based on a 8-week administration of memantine.\nas §1, §2\n(§4) Dosages. Sixteen (16) outpatients with a diagnosis of ADHD combined type received treatment with memantine for a total of 8 weeks. Patients were enrolled in to two groups of 8 patients each, Cohort 1 and Cohort 2. Dose adjustments were permitted for patients experiencing dose-limiting adverse events. For Cohort 1 patients, treatment consisted of a 4 week titration period from a starting dose of 2.4 mg/day at the start of week 0, to 4.8 mg/day at the start of week 1, to 7.2 mg/day at the start of Week 2 to a maximum dose of 10 mg/day at the start of week 3, with a maintenance dose of 10 mg/day continuing to the end of Week 8. For Cohort 2 patients, treatment consisted of a 4-week titration period from a starting dose of 4.8 mg/day at the start of Week 0, to 10 mg/day at the start of Week 1, to 14.8 mg/day at the start of Week 2, to a maximum dose of 20 mg/day at the start of Week 3, with a maintenance dose of 20 mg/day continuing to the end of Week 8.\n(§5) Patients who missed 2 consecutive visits were discontinued from the study. […] The “Safety Population” consisted of all patients who took at least one dose of study medication. The “Intent-to-Treat (ITT) Population” consisted of all patients in the safety population with at least one post baseline efficacy assessment of ADHD-IV-RS or CGI-ADHD-S. ADHD-IV-RS or CGI-ADHD-S were administered 4 times per patient, once at Screening, once at baseline, once at the end of Week 4 and once at the end of Week 8. […] Those patients unable to tolerate the minimum daily dose after the Week 1 of dosing were discontinued from the study without replacement.\nEfficacy parameters used for evaluation were the ADHD-IV-RS, CGI-ADHD-S, CCPT-II, Woodcock Johnson III reading and math fluency tests, and the Stroop test, described above.\nThe primary analysis for each efficacy parameter was based on observed cases. Only patients completing the evaluation were included in the OC analysis, missing data were not imputed. A last observation carried forward (LOCF) analysis was also performed for each efficacy assessment. […]"}, "[7]": {"test_system": "pediatric patients diagnosed with ADHD combined type", "test": "Open-label ADHD study: overall efficacy, tolerability and patient disposition", "format": "in vivo, human", "experimental": "as §3, §1, §4, §5\nAdverse events. Adverse event (AE) monitoring was performed at all study visits except Screening, including early termination. An AE is any untoward medical occurrence in a patient or clinical investigation subject administered a pharmaceutical product. It is not necessary that the AE have a causal relationship to treatment with the product.\nAn AE therefore is any unfavorable and unintended sign (for example, a clinically significant abnormal laboratory finding) symptom, or disease temporally associated with the use of study medication, whether or not considered related to study medication. […] An AE occurring during the open-label treatment period is counted as a treatment-emergent AE (TEAE) if it is not present prior to the first dose of study medication or if it is present prior to the first dose of study medication but increases in severity following the first dose of study medication.\nThe number (percentage) of patients with TEAEs were tabulated by body system and preferred term. Within a specific category (i.e., a specific body system or preferred term), the patient was counted only once if the patient had more than one event reported. […]"}, "[8]": {"test_system": "cytochrome P-450 (CYP 450) isoenzymes", "conditions": "in vitro; cited from earlier work"}, "[9]": {"test_system": "NMDA receptor", "conditions": "uncompetitive antagonist; cited from earlier work"}, "[10]": {"conditions": "cited from earlier work"}, "[11]": {"conditions": "aqueous media; cited from earlier work"}, "[12]": {"test_system": "autistic spectrum disorders", "conditions": "in vivo; cited from earlier work"}, "[13]": {"test_system": "autism", "conditions": "in vivo; cited from earlier work"}, "[14]": {"conditions": "Cohort 1 (up to 10 mg/day), LOCF"}, "[15]": {"conditions": "Cohort 2 (up to 20 mg/day), LOCF"}}, "data": [{"molecule": "NC12CC3CC(CC(C3)C1)C2", "note": "[amantadine, 1-aminoadamantane]", "values": [{"measurement": "Measures of hyperactivity and irritability", "setting": "[1]", "result": "statistically significant improvement"}, {"measurement": "Effects in hyperkinetic children and children with ADD", "setting": "[2]", "result": "favorable effects"}]}, {"molecule": "CC12CC3CC(C)(C1)CC(N)(C3)C2.Cl", "note": "[memantine, 1-amino-3,5-dimethyladamantane hydrochloride]", "values": [{"measurement": "CGI-ADHD-S: patients considered borderline or markedly ill", "setting": "[3]", "result": 75, "unit": "%"}, {"measurement": "Cognitive, functional and global assessments", "setting": "[4]; 2 US studies, outpatients ages 50-93, moderate to severe Alzheimer's dementia", "result": "significant improvement"}, {"measurement": "Care dependency and global change relative to placebo", "setting": "[4]; study 9403, Latvian nursing home patients, Alzheimer's disease or vascular dementia (MMSE<10)", "result": "significant improvement"}, {"measurement": "Safety and tolerability profile", "setting": "[5]; 2297 patients in 27 clinical trials", "result": "acceptable"}, {"measurement": "Most common adverse events", "setting": "[5]; clinical trials, relatively rare", "result": "dizziness, headache, constipation, and confusion"}, {"measurement": "ADHD-IV-RS change from baseline, Week 4 (mean)", "setting": "[6]; [14]", "result": "−3.3"}, {"measurement": "ADHD-IV-RS change from baseline, Week 8 (mean ± SD)", "setting": "[6]; [14]", "result": "−3.8 ± 2.31"}, {"measurement": "ADHD-IV-RS score, Week 4 (mean ± SD)", "setting": "[6]; [14]", "result": "42.8 ± 8.33"}, {"measurement": "ADHD-IV-RS score, Week 8 (mean ± SD)", "setting": "[6]; [14]", "result": "40.9 ± 8.53"}, {"measurement": "ADHD-IV-RS change from baseline, Week 4 (mean ± SD)", "setting": "[6]; Cohort 1 (up to 10 mg/day), OC", "result": "−3.5 ± 2.38"}, {"measurement": "ADHD-IV-RS score, Week 4 (mean ± SD)", "setting": "[6]; Cohort 1 (up to 10 mg/day), OC", "result": "42.8 ± 8.33"}, {"measurement": "ADHD-IV-RS change from baseline, Week 4 (mean)", "setting": "[6]; [15]", "result": "−10.9"}, {"measurement": "ADHD-IV-RS change from baseline, Week 8 (mean ± SD)", "setting": "[6]; [15]", "result": "−9 ± 10.00"}, {"measurement": "ADHD-IV-RS score, Week 4 (mean ± SD)", "setting": "[6]; [15]", "result": "31.3 ± 13.05"}, {"measurement": "ADHD-IV-RS score, Week 8 (mean ± SD)", "setting": "[6]; [15]", "result": "32.9 ± 12.76"}, {"measurement": "ADHD-IV-RS change from baseline, Week 4 (mean ± SD)", "setting": "[6]; Cohort 2 (up to 20 mg/day), OC", "result": "−11. ± 59.65"}, {"measurement": "ADHD-IV-RS change from baseline, Week 8 (mean ± SD)", "setting": "[6]; Cohort 2 (up to 20 mg/day), OC", "result": "−16.5 ± 8.19"}, {"measurement": "ADHD-IV-RS score, Week 4 (mean ± SD)", "setting": "[6]; Cohort 2 (up to 20 mg/day), OC", "result": "29.5 ± 13.32"}, {"measurement": "ADHD-IV-RS score, Week 8 (mean ± SD)", "setting": "[6]; Cohort 2 (up to 20 mg/day), OC", "result": "22.3 ± 8.66"}, {"measurement": "Effect on ADHD-IV-RS (in words)", "setting": "[6]; Cohort 2, end of 8 weeks, OC analysis", "result": "showed improvement"}, {"measurement": "Tolerability in patients with ADHD", "setting": "[7]; 8-week open-label treatment, up to 10 or 20 mg/day", "result": "well tolerated"}, {"measurement": "Patients discontinued for insufficient therapeutic efficacy", "setting": "[7]; Cohort 1, 8 patients, all discontinued prior to week 8", "result": 7}, {"measurement": "Behavior and symptomology of combined type ADHD (in words)", "setting": "[7]; Cohort 2 (up to 20 mg/day)", "result": "demonstrated improvements"}, {"measurement": "Patients discontinued for insufficient therapeutic efficacy", "setting": "[7]; Cohort 2, 8 patients, 4 completed the study", "result": 3}, {"measurement": "Efficacy after 8 weeks of treatment (in words)", "setting": "[7]; the 25% of patients completing the study", "result": "improvement in two efficacy parameters was observed"}, {"measurement": "Inhibition of CYP 450 isoenzymes", "setting": "[8]", "result": "does not inhibit"}, {"measurement": "Affinity for the NMDA receptor", "setting": "[9]", "result": "low to moderate"}, {"measurement": "Bioavailability after an oral dose", "setting": "[10]; adult humans, oral", "result": 100, "unit": "%"}, {"measurement": "CSF/serum ratio", "setting": "[10]; adult humans", "result": 0.52}, {"measurement": "Metabolism", "setting": "[10]; adult humans", "result": "minimal"}, {"measurement": "Effect of food, sex or age on pharmacokinetic profile", "setting": "[10]; in vivo", "result": "not affected"}, {"measurement": "Solubility", "setting": "[11]", "result": "highly soluble"}]}, {"molecule": "Cc1nc2n(c(=O)c1CCN1CCC(c3noc4cc(F)ccc34)CC1)CCCC2", "note": "[risperidone]", "values": [{"measurement": "Adverse effects associated with treatment", "setting": "[12]", "result": "weight gain, increased appetite, fatigue, drowsiness, tremor and drooling"}]}, {"molecule": "secretin: a synthetic form of the natural human hormone secretin developed by RepliGen for the potential treatment of autism", "values": [{"measurement": "Autistic behavior compared to placebo", "setting": "[13]", "result": "did not demonstrate significant improvement"}]}]}
